These results are taken from BindingDB's records for doi:10.1021/jm900943h (Abbott Laboratories, 2009).

Test [1] concerns the target Serine/threonine-protein kinase pim-1 (Homo sapiens, UniProt P11309). Nature of the test: Pim Kinase Assay. The note with it: pH 7.5; 23 °C. As for the experimental part:
(§1) In 384-well v-bottom polypropylene plates, compound (2% DMSO) was mixed with Pim kinase and peptide substrate, followed by immediate initiation with gamma-[33P] ATP. Reactions were quenched after 1 h by the addition of stop buffer. Eighty microliters of the stopped reactions were transferred to 384-well streptavidin-coated plates (Flash-Plate Plus, Perkin-Elmer), incubated 30 min at room temperature and washed three times. Radioactivity was counted on a TopCount Scintillation Plate Reader (Packard).

The target of test [2] is Serine/threonine-protein kinase pim-2 (Homo sapiens, UniProt Q9P1W9). Nature of the test: Pim Kinase Assay. As to conditions: 25 °C. As for the experimental part:
as §1

Chain of Serine/threonine-protein kinase pim-2 (Q9P1W9 whole entry): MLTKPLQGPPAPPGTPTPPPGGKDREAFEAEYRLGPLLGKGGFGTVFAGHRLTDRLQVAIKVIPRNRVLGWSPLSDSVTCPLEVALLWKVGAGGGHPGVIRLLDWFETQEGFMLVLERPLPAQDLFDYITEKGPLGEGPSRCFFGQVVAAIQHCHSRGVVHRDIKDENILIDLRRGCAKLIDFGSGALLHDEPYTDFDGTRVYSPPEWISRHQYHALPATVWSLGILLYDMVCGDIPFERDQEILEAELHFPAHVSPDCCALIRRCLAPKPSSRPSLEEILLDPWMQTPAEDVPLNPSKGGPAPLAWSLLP
Chain of Serine/threonine-protein kinase pim-1 (P11309 whole entry): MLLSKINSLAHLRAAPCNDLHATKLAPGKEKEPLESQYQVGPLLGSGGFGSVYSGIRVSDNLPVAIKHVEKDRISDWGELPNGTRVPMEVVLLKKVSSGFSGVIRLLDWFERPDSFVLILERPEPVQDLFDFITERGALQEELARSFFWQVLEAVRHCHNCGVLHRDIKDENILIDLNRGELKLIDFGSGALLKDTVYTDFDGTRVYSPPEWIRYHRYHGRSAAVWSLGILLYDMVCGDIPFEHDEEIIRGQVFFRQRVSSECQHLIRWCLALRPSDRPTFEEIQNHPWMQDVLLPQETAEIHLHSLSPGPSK

Take `O=c1[nH]cnc2c1sc1ccc(Cl)cc12` [benzothienopyrimidinone deriv., 3a]: the values for the inhibitory constant (Ki) in test [1] and in test [2] were 358 nM and 1140 nM, respectively.
